The results in this text go back to patent US8124641B2, “Aminotetrahydroindazoloacetic acids” (Hoffmann-La Roche Inc., priority 2008, dated 2012).

For this experiment, the target named is T1, human CRTH2 (Homo sapiens, UniProt Q9Y5Y4).
T1 construct: expressed in transfected cells
T1 sequence (Q9Y5Y4 1-395): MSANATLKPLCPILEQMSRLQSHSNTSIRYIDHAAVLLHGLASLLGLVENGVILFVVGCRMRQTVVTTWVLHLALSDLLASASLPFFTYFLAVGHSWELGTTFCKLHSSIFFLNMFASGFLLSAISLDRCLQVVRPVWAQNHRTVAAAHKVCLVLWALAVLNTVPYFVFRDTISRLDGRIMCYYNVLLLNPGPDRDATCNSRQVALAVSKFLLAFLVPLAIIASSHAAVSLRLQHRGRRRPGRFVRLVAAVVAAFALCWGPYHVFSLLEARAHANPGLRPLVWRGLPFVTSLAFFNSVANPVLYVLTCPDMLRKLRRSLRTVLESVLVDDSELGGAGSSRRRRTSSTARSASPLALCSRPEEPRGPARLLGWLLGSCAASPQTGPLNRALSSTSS
Nature of the experiment: Human CRTH2 Receptor Binding Assay (whole cell, [3H]ramatroban competition). The note with it: CHO-K1 cells stably expressing human CRTH2 and G-alpha16; 20 nM [3H]ramatroban; 1 hour, room temperature. From the text:
A whole cell receptor binding assay using [^3H]ramatroban as the competing radioactive ligand was employed to evaluate the compound binding activity to human CRTH2. The radioactive ligand [^3H]ramatroban was synthesized according to Sugimoto et. al. (Eur. J. Pharmacol. 524, 30-37, 2005) to a specific activity of 42 Ci/mmol.
A cell line stably expressing human CRTH2 was established by transfecting CHO-K1 cells with two mammalian expression vectors that harbored human CRTH2 and G-alpha16 cDNAs, respectively, using FuGene® 6 transfection reagent (from Roche). Stable clones expressing CRTH2 were selected by staining each clone with BM16 (BD Pharmingen™ from BD Biosciences, a division of Becton, Dickinson and Company), which is a rat monoclonal antibody to human CRTH2. The cells were maintained as monolayer cultures in Ham's F-12 medium containing 10% fetal bovine serum, 100 units/mL penicillin, 100 μg/mL streptomycin, 2 mM glutamine, 0.5 mg/mL G418 (geneticin) for CRTH2, and 0.2 mg/mL hygromycin-B (for G-alpha 16). For whole cell receptor binding assay, the monolayer cells were rinsed once with PBS (phosphate buffered saline), dissociated using ethylenediaminetetraacetate (Versene™ EDTA from Lonza Inc.), and suspended in PBS containing 10 mM MgCl2 and 0.06% BSA (bovine serum albumin) at 1.5×10^6 cells/mL.
The binding reactions (0.2 mL) were performed in 96-well plates at room temperature in PBS containing 1.5×10^5 cells, 10 mM MgCl2, 0.06% BSA, 20 nM [^3H]ramatroban, and test compound at various concentrations. After 1 hour of binding reactions, the cells were harvested on GF™/B filter microplates (microtiter plates with embedded glass fiber from PerkinElmer, Inc.) and washed 5 times with PBS using a Filtermate™ Harvester (a cell harvester that harvests and washes cells from microplates from PerkinElmer, Inc.). The radioactivities bound to the cells were determined using a microplate scintillation counter (TopCount® NXT, from PerkinElmer, Inc.) after adding 50 μL of Microscint™ 20 scintillation fluid (from PerkinElmer, Inc.) to each well of the filter plates. The radioactivity from non-specific binding was determined by replacing compound with 10 μM of 15(R)-15-methyl PGD2 (from Cayman Chemical Company) in the reaction mixtures. The radioactivity bound to the cells in the absence of compound (total binding) was determined by replacing compound with 0.25% of DMSO (dimethyl sulfoxide) in the reaction mixture. Specific binding data were obtained by subtracting the radioactivity of non-specific binding from each binding data.
The IC50 value is defined as the concentration of the tested compound that is required for 50% inhibition of total specific binding. In order to calculate the IC50 value, the percent inhibition data were determined for 7 concentrations for each compound. The percent inhibition for a compound at each concentration was calculated according to the following formula, [1−(specific binding in the presence of compound)/(total specific binding)]×100. The IC50 value was then obtained by fitting the percent inhibition data to a sigmoidal dose-response (4 parameter logistic) model in the XLfit® software Excel add-in program [from ID Business Solutions Ltd., model 205, where F(x)=(A+(B−A)/(1+((C/x)^D)))].

pIC50: −log10 of the molar value.

The pIC50 is the negative decadic logarithm of the IC50, by convention in mol/L. Read a low pIC50 as a large IC50.

For the compound `CC[S+]([O-])c1cc(C(F)(F)F)cc(S(=O)(=O)N(C)[C@@H]2CCCc3c2cnn3CC(=O)O)c1` (stereo partly drawn) [Example 8-1a, {(R)-4-[(3-Ethanesulfinyl-5-trifluoromethyl-benzenesulfonyl)-methyl-amino]-4,5,6,7-tetrahydro-indazol-1-yl}-acetic acid], the pIC50 was 8.48. With `CN([C@@H]1CCCc2c1cnn2CC(=O)O)S(=O)(=O)c1cc(SC2CCCC2)cc(C(F)(F)F)c1` [Example 9-1a, {(R)-4-[(3-Cyclopentylsulfanyl-5-trifluoromethyl-benzenesulfonyl)-methyl-amino]-4,5,6,7-tetrahydro-indazol-1-yl}-acetic acid], the pIC50 was 7.90.

In turn, `CCS(=O)(=O)c1cc(C(F)(F)F)cc(S(=O)(=O)N(C)[C@@H]2CCCc3c2cnn3CC(=O)O)c1` [Example 10-1a, {(R)-4-[(3-Ethanesulfonyl-5-trifluoromethyl-benzenesulfonyl)-methyl-amino]-4,5,6,7-tetrahydro-indazol-1-yl}-acetic acid] showed a pIC50 of 8.60. Compound `CN([C@@H]1CCCc2c1cnn2CC(=O)O)S(=O)(=O)c1cc(C(F)(F)F)cc(S(=O)(=O)C2CCCC2)c1` [Example 10-2a, {(R)-4-[(3-Cyclopentanesulfonyl-5-trifluoromethyl-benzenesulfonyl)-methyl-amino]-4,5,6,7-tetrahydro-indazol-1-yl}-acetic acid] showed a negative logarithm of the IC50 (pIC50) of 8.54.

As for `CC(C)S(=O)(=O)c1cc(C(F)(F)F)cc(S(=O)(=O)N(C)[C@@H]2CCCc3c2cnn3CC(=O)O)c1` [Example 10-3a, ((R)-4-{Methyl-[3-(propane-2-sulfonyl)-5-trifluoromethyl-benzenesulfonyl]-amino}-4,5,6,7-tetrahydro-indazol-1-yl)-acetic acid], the pIC50 is 8.68. In turn, `CN([C@@H]1CCCc2c1cnn2CC(=O)O)S(=O)(=O)c1cc(C(F)(F)F)cc(S(=O)(=O)C(C)(C)C)c1` [Example 10-4a, ((R)-4-{Methyl-[3-(2-methyl-propane-2-sulfonyl)-5-trifluoromethyl-benzenesulfonyl]-amino}-4,5,6,7-tetrahydro-indazol-1-yl)-acetic acid] gave a pIC50 of 8.33. In turn, `CC(C)S(=O)(=O)c1cc(C(F)(F)F)cc(S(=O)(=O)N(C)[C@@H]2CCCc3c2cnn3CCC(=O)O)c1` [Example 10-5a, 3-((R)-4-{Methyl-[3-(propane-2-sulfonyl)-5-trifluoromethyl-benzenesulfonyl]-amino}-4,5,6,7-tetrahydro-indazol-1-yl)-propionic acid] showed a negative-log IC50 (pIC50) of 8.62.

Turning to `CN([C@@H]1CCCc2c1cnn2CCC(=O)O)S(=O)(=O)c1cc(C(F)(F)F)cc(S(=O)(=O)C2CCCC2)c1` [Example 10-6a, 3-{(R)-4-[(3-Cyclopentanesulfonyl-5-trifluoromethyl-benzenesulfonyl)-methyl-amino]-4,5,6,7-tetrahydro-indazol-1-yl}-propionic acid], the negative-log IC50 (pIC50) is 8.48.

In the case of `CN([C@@H]1CCCc2c1cnn2CCC(=O)O)S(=O)(=O)c1cc(C(F)(F)F)cc(S(=O)(=O)C(C)(C)C)c1` [Example 10-7a, 3-((R)-4-{Methyl-[3-(2-methyl-propane-2-sulfonyl)-5-trifluoromethyl-benzenesulfonyl]-amino}-4,5,6,7-tetrahydro-indazol-1-yl)-propionic acid], the negative logarithm of the IC50 (pIC50) is 7.90.

On to `CC1(c2cc(C(F)(F)F)cc(S(=O)(=O)N[C@@H]3CCCc4c3cnn4CC(=O)O)c2)CC1` [Example 11-1a, {(R)-4-[3-(1-Methyl-cyclopropyl)-5-trifluoromethyl-benzenesulfonylamino]-4,5,6,7-tetrahydro-indazol-1-yl}-acetic acid], for which the pIC50 is 8.11. Consider `CC(C)c1cc(C(F)(F)F)cc(S(=O)(=O)N[C@@H]2CCCc3c2cnn3CC(=O)O)c1` [Example 12-1a, (R)-[4-(3-Isopropyl-5-trifluoromethyl-benzenesulfonylamino)-4,5,6,7-tetrahydro-indazol-1-yl]-acetic acid], for which the negative logarithm of the IC50 (pIC50) was 7.66.

`CC(C)c1cc(C(F)(F)F)cc(S(=O)(=O)N(C)[C@@H]2CCCc3c2cnn3CC(=O)O)c1` [Example 13-1a, {(R)-4-[(3-isopropyl-5-trifluoromethyl-benzenesulfonyl)-methyl-amino]-4,5,6,7-tetrahydro-indazol-1-yl}-acetic acid] had a negative logarithm of the IC50 (pIC50) of 8.14. The result for `CN([C@@H]1CCCc2c1cnn2CC(=O)O)S(=O)(=O)c1cc(C(F)(F)F)cc(C2(C)CC2)c1` [Example 14-1a, ((R)-4-{Methyl-[3-(1-methyl-cyclopropyl)-5-trifluoromethyl-benzenesulfonyl]-amino}-4,5,6,7-tetrahydro-indazol-1-yl)-acetic acid] reads 8.21.

Consider `CCC1(c2cc(C(F)(F)F)cc(S(=O)(=O)N(C)[C@@H]3CCCc4c3cnn4CC(=O)O)c2)CC1` [Example 15-1a, ((R)-4-{[3-(1-Ethyl-cyclopropyl)-5-trifluoromethyl-benzenesulfonyl]-methyl-amino}-4,5,6,7-tetrahydro-indazol-1-yl)-acetic acid], for which the negative-log IC50 (pIC50) is 7.91. The result for `C#Cc1cc(C(F)(F)F)cc(S(=O)(=O)NC2CCCc3c2cnn3CC(=O)O)c1` (stereo not drawn) [Example 16-1a, [4-(3-Ethynyl-5-trifluoromethyl-benzenesulfonylamino)-4,5,6,7-tetrahydro-indazol-1-yl]-acetic acid] reads 7.16; that for `CN([C@@H]1CCCc2c1cnn2CC(=O)O)S(=O)(=O)c1cc(C(F)(F)F)cc([Si](C)(C)C)c1` [Example 17-1a, {(R)-4-[Methyl-(3-trifluoromethyl-5-trimethylsilanyl-benzenesulfonyl)-amino]-4,5,6,7-tetrahydro-indazol-1-yl}-acetic acid], 7.25. Compound `CN([C@@H]1CCCc2c1cnn2CC(=O)O)S(=O)(=O)c1cc(C2CCCC2)cc(C(F)(F)F)c1` [Example 18-1a, {(R)-4-[(3-Cyclopentyl-5-trifluoromethyl-benzenesulfonyl)-methyl-amino]-4,5,6,7-tetrahydro-indazol-1-yl}-acetic acid] showed a pIC50 of 7.54.

For the compound `CC(=O)c1cc(C(F)(F)F)cc(S(=O)(=O)N(C)[C@@H]2CCCc3c2cnn3CC(=O)O)c1` [Example 19-1a, {(R)-4-[(3-Acetyl-5-trifluoromethyl-benzenesulfonyl)-methyl-amino]-4,5,6,7-tetrahydro-indazol-1-yl}-acetic acid], the pIC50 is 8.15.

`CN([C@@H]1CCCc2c1cnn2CC(=O)O)S(=O)(=O)c1cc(C(C)(F)F)cc(C(F)(F)F)c1` [Example 20-1a, ((R)-4-{[3-(1,1-Difluoro-ethyl)-5-trifluoromethyl-benzenesulfonyl]-methyl-amino}-4,5,6,7-tetrahydro-indazol-1-yl)-acetic acid] gave a negative-log IC50 (pIC50) of 8.46. For `CN([C@@H]1CCCc2c1cnn2C(C)(C)C(=O)O)S(=O)(=O)c1cc(C(F)(F)F)cc(C(F)(F)F)c1` [Example 21-1a, 2-{(R)-4-[(3,5-Bis-trifluoromethyl-benzenesulfonyl)-methyl-amino]-4,5,6,7-tetrahydro-indazol-1-yl}-2-methyl-propionic acid], the negative-log IC50 (pIC50) is 6.56. In the case of `CC(=O)Nc1cccc(S(=O)(=O)NC2CCCc3c2cnn3CC(=O)O)c1` (stereo not drawn) [Example 22-1a, [4-(3-Acetylamino-benzenesulfonylamino)-4,5,6,7-tetrahydro-indazol-1-yl]-acetic acid], the negative-log IC50 (pIC50) is 7.10.
